Data taken from publication PMC9100673, “Acridine Based N-Acylhydrazone Derivatives as Potential Anticancer Agents: Synthesis, Characterization and ctDNA/HSA Spectroscopic Binding Properties” (Molecules, 2022).
Values belong to the compound of their own block, whether it stands above or below them.

How the values were obtained:
[1] = test system: CCD-18Co cells; test: MTT assay, metabolic activity of CCD-18Co fibroblasts; assay type: cell-based, human; conditions: 48 h
Experimental: (§1) The effect of acridine-benzohydrazides (3a–3d) on the metabolic activity of the lung adenocarcinoma cell line (A549) and the normal colon fibroblast cell line (CCD-18Co) was evaluated using a 3-(4,5-dimethylthiazol-2-yl)-2,5-diphenyltertrazolium bromide (MTT) cell assay. This assay is based on the metabolization of yellow MTT to purple formazan crystal by mitochondrial dehydrogenases, and therefore only metabolic active cells are capable of that reaction. The CCD-18Co cell line was used as a control to check for derivatives selectivity. The doxorubicin belongs to a group of anthracyclines, which represent the chemotherapeutic regiments for the treatment of NSCLC (non-small cell lung carcinoma) even today, and acts as antineoplastic mainly by interaction with the DNA topoisomerase II and by creating DNA single- and double-strand breaks. Previous studies described detailed cytotoxic effects of doxorubicin in the human lung adenocarcinoma A549 cell line. Doxorubicin resembles our compounds in its biological action; therefore, it was employed as a positive control.
(§2) Human lung carcinoma cell line A549 and CCD-18Co colon fibroblasts were purchased from the American Type Culture Collection (ATCC, Rockville, MD, USA). The A549 cells were cultured in a complete RPMI-1640 medium (Sigma-Aldrich, St. Louis, MO, USA) and CCD-18Co cells were cultured in a minimum essential medium (MEM) (PAN-Biotech GmbH, Aidenbach, Germany) at 37 °C, 95% humidity and 5% CO2. The media were supplemented with 10% fetal bovine serum (FBS, Biosera, Nuaille, France) and antibiotics (1% Antibiotic-Antimycotic 100 × and 50 × 10^−3 g L^−1 gentamicin, Biosera). Prior to the selected treatments, cells were seeded on 6- and/or 96-well plates (TPP, Trasadingen, Switzerland) and left to settle for 24 h. The acridine compounds solutions (at concentrations ranging from 5–75 µM) were then added to cells for 24 or 48 h, and analysis was subsequently performed.
(§3) MTT assays were performed in order to evaluate changes in the metabolic activity of cells that had occurred as a consequence of treatment with the acridine compounds. A549 cells (15 × 10^3 cells/cm^2) and CCD-18Co (15.625 × 10^3 cells/cm^2) were seeded in 96-well microplates. The A549 cells were treated for 24 and 48 h, and the CCD-18Co cells were treated for 48 h with different concentrations (5, 25, 50 and 75 µM) of the derivatives. After the treatment, the MTT (3-(4,5-dimethylthiazol-2-yl)-2,5-diphenyltertrazolium bromide) solution in PBS (5 mg mL^−1) was added to each well. The reaction was stopped after 4 h incubation, and the formazan was dissolved by the addition of SDS at a final concentration of 3.3%. The absorbance of formazan (λ = 584 nm) was measured using a BMG FLUOstar Optima spectrometer (BMG Labtech GmbH, Offenburg, Germany). The results were evaluated as percentages of the absorbance of the untreated control. Results are presented as the average percentage of cells from three independent experiments. IC50 values for the derivatives were extrapolated from a sigmoidal fit (dose-response curve) to the metabolic activity data using OriginPro 8.5.0 SR1 (OriginLab Corp., Northampton, MA, USA).

[2] = test system: A549 cells; test: MTT assay, metabolic activity of A549 cells; assay type: cell-based, human; conditions: for IC50: Homo sapiens
Experimental: as §1, §2, §3

melting point: 255 to 256 °C
SMILES: O=C(N/N=C/c1ccc(F)cc1)c1cccc2cc3ccccc3nc12 [7b, N′-[(E)-4-Fluorophenylmethylidene]acridine-4-carbohydrazide]

melting point: 243 to 244 °C
SMILES: O=C(N/N=C/c1ccc(Cl)cc1)c1cccc2cc3ccccc3nc12 [7c, N′-[(E)-4-Chlorophenylmethylidene]acridine-4-carbohydrazide]

melting point: 240 to 241 °C
SMILES: O=C(N/N=C/c1ccc(Br)cc1)c1cccc2cc3ccccc3nc12 [7d, N′-[(E)-4-Bromophenylmethylidene]acridine-4-carbohydrazide]

IC50 ([2]; A549, 24 h): 56 µM | IC50 ([2]; A549, 48 h): 5 µM
SMILES: COc1cccc2c1C(=O)c1c(O)c3c(c(O)c1C2=O)C[C@@](O)(C(=O)CO)C[C@@H]3O[C@H]1C[C@H](N)[C@H](O)[C@H](C)O1 [DOXO, doxorubicin, reference compound]
effect on metabolic activity of CCD-18Co cells ([1]; 5–75 μM tested): significantly decreased | IC50 ([1]; Homo sapiens, CCD-18Co): 5 µM | effect on metabolic activity of A549 cells ([2]; 24 h and 48 h, 5–75 μM tested): significantly decreased
